These results are taken from patent publication US20250042866A1, “CRYSTAL FORM OF BLARCAMESINE HYDROCHLORIDE, METHOD FOR PREPARING SAME, AND USE THEROF” (CRYSTAL PHARMACEUTICAL (SUZHOU) CO., LTD., priority 2022, published 2025).

Assay type in all cases: physicochemical
Series [1] is described as follows: Storage stability of drug substance (HPLC purity and XRPD form). To be noted: for chemical purity during storage: 40° C./75% RH and 60° C./75% RH. The method, then: Chemical purity and crystalline form were tested by HPLC and XRPD respectively.
Open: the sample was placed into a glass vial, and the vial was covered by aluminum foil with holes.
Sealed with desiccants: the sample was placed into a glass vial, and the vial was covered by aluminum foil with holes, then the vial was sealed into an aluminum foil bag with 1 g of silica gel desiccant.
An appropriate amount of Form CSIV of the present disclosure were stored under different conditions of 25° C./60% RH, 40° C./75% RH and 60° C./75% RH. Chemical purity and crystalline form were test by HPLC and XRPD respectively. […] Form CSIV is stable after storage under 40° C./75% RH condition for at least 6 months, indicating Form CSIV has good stability under accelerated condition. Form CSIV is stable after storage under 60° C./75% RH condition for at least 2 weeks, indicating Form CSIV has good stability under stress condition.

A short description of series [2]: Compressibility: tensile strength of compressed tablets. To be noted: 80 mg, Φ6 mm round tooling, 3 kN, after 24 hours at room temperature; T=2H/πDL. The method, then:
The samples were pressed by the ENERPAC single punch manual tablet press. […] The elastic recovery was completed after storage at room temperature for 24 hours, then the diameter (D) and thickness (L) of the tablet was measured by a caliper, and the hardness (H) was tested with a tablet hardness tester. Tensile strength of the powder was calculated with the following formula: T=2H/πDL. Under a certain force, the greater the tensile strength, the better the compressibility.

A short description of series [3]: Flowability (compressibility index / Carr index). As to conditions: criteria of ICH Q4B Annex 13, by compressibility index. The method, then: The bulk density ρ0 was calculated with the formula “bulk density ρ0=powder mass/volume before tapped”. […] The tapped density pf was calculated with the formula “tapped density ρf=powder mass/volume after tapped”. The degree of compression (c), also known as Compressibility index or Carr index, was calculated based on the measured bulk density and tap density of the sample with the formula c=(ρf-ρ0)/ρf*100%.
The bulk density ρ0 was calculated with the formula “bulk density ρ0=powder mass/volume before tapped”. […] The tapped density pf was calculated with the formula “tapped density ρf=powder mass/volume after tapped”. The degree of compression (c), also known as Compressibility index or Carr index, was calculated based on the measured bulk density and tap density of the sample with the formula c=(pf-ρ0)/ρf*100%.

Series [4] is described as follows: Stability upon mechanical force: ball milling. To be noted: XRPD.
Series [5] in a line: Light stability (HPLC purity and XRPD form). As to conditions: for Initial purity: before light exposure; for Purity / Solid form: light 8 k Lux, UV 1.5 w/m^2, 2 weeks; for Purity: HPLC; for Solid form: XRPD. From the text: An appropriate amount of Form CSIV of the present disclosure was placed in a light stability chamber with the following setting values: light: 8 k Lux, UV: 1.5 w/m^2.

A short description of series [6]: Crystalline form stability in the formulation process. As to conditions: dry granulation simulation 5 ± 1 kN, blending, capsule filling; XRPD.
Series [7] in a line: Stability upon mechanical force: tableting under different pressures. To be noted: XRPD. The method, then:
An appropriate amount of Form CSII was compressed into tablets under different pressures with suitable tableting die. Crystalline form before and after tableting were tested by XRPD.
An appropriate amount of Form CSIII was compressed into tablets under different pressures with suitable tableting die. Crystalline form before and after tableting were tested by XRPD.

Series [8] is described as follows: Hygroscopicity by dynamic vapor sorption (DVS). As to conditions: 25° C., cycle 0% RH-95% RH-0% RH, about 10 mg. The method, then:
DVS data in the present disclosure were measured via an SMS (Surface Measurement Systems Ltd.) intrinsic DVS instrument. The instrument control software is DVS-Intrinsic control software. Typical Parameters for DVS test are as follows: • Temperature: 25° C. • Gas and flow rate: N2, 200 mL/min • RH range: 0% RH to 95% RH
The mass change at each relative humidity were recorded in a cycle of 0% RH-95% RH-0% RH.

Series [9] can be described thus: Solubility in organic solvents, step-wise solvent addition. As to conditions: organic solvent or mixture, thermodynamic from solid; Ethyl acetate; room temperature; as mass of Compound I. On the procedure: (§1) The weight of solid (m), the undissolved volume (v1) and the dissolved volume (v2) were recorded respectively.
as §1

[10] abbreviates: 25° C./60% RH, long-term condition.
The mark [11] stands for this setting: 25° C./60% RH, sealed with desiccants, 6 months.
Setting [12] is: 40° C./75% RH, accelerated condition.
Where [13] appears, read: 40° C./75% RH, sealed with desiccants, 6 months.
[14] abbreviates: 60° C./75% RH, sealed with desiccants, 2 weeks.
Where [15] appears, read: 60° C./75% RH, stress condition.
Where [16] appears, read: 5 minutes at a vibration speed of 500 rpm.
Setting [17] is: 25° C./60% RH, sealed with desiccants, 9 months.

The structures appear in SMILES notation. “Also recorded” adds a separate entry of the source.

For the compound `CN(C)CC1CCOC1(c1ccccc1)c1ccccc1.CN(C)CC1CCOC1(c1ccccc1)c1ccccc1.Cl.Cl.O=C(O)CC(O)C(=O)O` (racemic) [Form CSIV], the “time for which the drug substance is stable (crystalline state unchanged)” value (“time … (crystalline state unchanged)” for short) in series [1] (setting [10]) is reported as “at least 6 months”; in series [1] (setting [12]), “at least 6 months”; in series [1] (setting [15]) it was “at least 2 weeks”. Moreover, the Purity worked out at 99.92% in [1] (setting [11]); 99.93% in series [1] (setting [13]); 99.98% in series [1] (setting [14]); 99.95% in [1] (Initial); 99.92% in [5]. Also, the Solid form entry is recorded as “Form CSIV” in series [1] (setting [11]); “Form CSIV” in series [1] (setting [13]); “Form CSIV” in [1] (setting [14]); “Form CSIV” in series [1] (Initial); “remains unchanged; also recorded: Form CSIV” in series [5]. Further, the “chemical purity during storage” value in [1] was “above 99.9%”. The Tensile strength in series [2] is 0.705 MPa. Further, the Flowability result in series [3] is “Excellent (≤10)”. Further, in [4] (setting [16]), the “form change after ball milling” value is reported as “no form change”. The Initial purity in series [5] is on record as 99.92%.
In the case of `CN(C)CC1CCOC1(c1ccccc1)c1ccccc1.Cl.O=C(O)CC(O)(CC(=O)O)C(=O)O` (centres unmarked) [Form CSIII], the “time … (crystalline state unchanged)” value in [1] (setting [10]) was “at least 9 months”; in [1] (setting [12]) it was “at least 3 months”; in series [1] (setting [15]), “at least 2 month”. Further, the Purity in series [1] (25° C./60% RH, open, 9 months) is recorded as 99.91%; in [1] (setting [17]), 99.92%; in [1] (40° C./75% RH, sealed with desiccants, 3 months) it was 99.91%; in series [1] (60° C./75% RH, sealed with desiccants, 2 months), 99.86%; in [1] (Initial), 99.86%; in series [5], 99.76%. Further, the “chemical purity during storage” value in series [1] is reported as “above 99%”. The compound further registered a Tensile strength in [2] of 0.707 MPa. For the same compound, the Flowability entry in series [3] was “Fair (16-20)”. For the same compound, the “crystalline form before and after the formulation process” value in [6] is “stable before and after the formulation process”. Moreover, the “Crystalline form after tableting” value in series [7] (Pressure 5 kN), in [7] (Pressure 10 kN) and in series [7] (Pressure 20 kN) was “Form CSIII” throughout. In addition, the “form change after ball milling” value in [4] (vibration speed of 300 rpm) is on record as “no form change”. The Initial purity in series [5] is listed as 99.83%. Moreover, the Solid form result in series [5] is recorded as “remains unchanged; also recorded: Form CSIII”.
With `CN(C)CC1CCOC1(c1ccccc1)c1ccccc1.CN(C)CC1CCOC1(c1ccccc1)c1ccccc1.Cl.Cl.O=C(O)C(O)C(O)C(=O)O` (centres unmarked) [Form CSII], the “time … (crystalline state unchanged)” value in series [1] (setting [10]) was “at least 9 months”; in series [1] (setting [12]), “at least 6 months”. Besides, the Purity is on record as 99.90% in series [1] (25° C./60% RH, open, 9 months); 99.95% in series [1] (setting [17]); 99.90% in [1] (setting [13]); 99.94% in series [1] (60° C./75% RH, sealed with desiccants, 1 month); 99.96% in series [1] (Initial); 99.97% in series [5]. Also, the “chemical purity during storage” value in [1] was “above 99.9%”. Moreover, the “Mass increase under 70% RH” value in series [8] came to 0.24%. Also, the Tensile strength in series [2] is recorded as 0.705 MPa. In addition, in series [6], the “crystalline form before and after the formulation process” value is “stable before and after the formulation process”. Further, the “Crystalline form after tableting” value in [7] (Pressure 5 kN), in series [7] (Pressure 10 kN) and in [7] (Pressure 20 kN) was “Form CSII” each time. Also, in series [4] (setting [16]), the “form change after ball milling” value was “no form change”. In series [5], this compound displayed an Initial purity of 99.97%. In [5], the Solid form entry was “remains unchanged; also recorded: Form CSII”.
On to `CN(C)CC1CCOC1(c1ccccc1)c1ccccc1` (centres unmarked) [Form I in the prior art, tetrahydro-N,N-dimethyl-2,2-diphenyl-3-furanmethanamine, reference compound], for which the “Mass increase under 70% RH” value in series [8] came out at 0.54%. The compound also displayed a Tensile strength in [2] of 0.552 MPa. Moreover, the Flowability entry in series [3] is given as “Poor”. Moreover, the solubility in series [9] is less than 1500 µg/mL.

What is called solubility is the concentration that dissolves in the medium under given conditions.
